Experiments:
[1] = test system: IL-1β, IL-6, IL-17A, TNF-α, IL-10 and Foxp3 expression in colon lesions; experiment: mRNA expression of inflammatory and immunomodulatory factors in colon of DSS mice (real-time PCR); assay type: in vivo, mouse; details: 20 mg/kg oral, 15th day, compared to solvent control
Text: On the 15th day of the experiment, the colon of the mouse was excised to prepare an mRNA sample. In order to extract mRNA, the colon tissue was ground with a homogenizer to acquire a homogeneous suspension. […] From the isolated RNA, cDNA was synthesized by reverse transcription followed by confirming the expression of inflammatory cytokines through real-time polymerase chain reaction (PCR) using iQ SYBR-Green Supermix (Bio-rad) in the CFX96 (Bio-rad) detection system. Relative values of the enzyme expression levels were compared by the ΔΔct method using GAPDH as a control enzyme. Herein, one (1) fold was set using the normal mouse colon as a control.
The real-time polymerase chain reaction was implemented under the conditions of cycles at an annealing temperature of 58′° C. and the following primer sequences were used.

[2] = test system: C57BL/6 mice with DSS-induced inflammatory bowel disease; experiment: DSS-induced inflammatory bowel disease model, severity index and colon weight:length ratio; assay type: in vivo, mouse; details: 20 mg/kg oral daily, compared to solvent control
Procedure: The 1.5% DSS solution was changed at an interval of 2 days. Sterile distilled water was provided for drinking from the 8th day of the experiment. Body weight and severity index were measured at an interval of 2 days from the 0th day of the experiment in order to confirm the onset of inflammatory bowel disease.
20 mg/kg of the compound per mouse was completely dissolved in DMSO corresponding to 10% (v/v) of the administered dose, and then diluted in a cremophor EL-phosphate buffered saline mixture in order to produce the final DMSO:Cremophor EL:phosphate buffered saline (1:1:8, v/v/v), followed by oral administration of 200 μl daily for a total of 10 times from the 2nd to 11th days of the experiment. An inflammatory bowel disease severity index was visually observed and recorded at an interval of 2 days according to a severity index system classified into 0 to 10 levels.
Inflammatory bowel disease symptoms were evaluated by summing the scores of three items according to the following items (Table 3).

[3] = test system: C57BL/6 mice with DSS-induced inflammatory bowel disease; experiment: Mucosal healing (intestinal epithelial barrier integrity) with FITC-dextran in DSS mice; assay type: in vivo, mouse; parameters: dose or concentration left out as unconfirmed; details: oral daily 2nd to 9th day, 10th day, 4 hours after FITC-dextran, compared to solvent control
Text: The 1.5% DSS solution was changed at an interval of 2 days. Sterile distilled water was provided for drinking from the 8th day of the experiment.

[4] = test system: Foxp3+ regulatory T cells; experiment: In vitro regulatory T cell (Foxp3+ Treg) production from human peripheral blood CD4 T cells; assay type: cell-based; details: anti-CD3/anti-CD28, TGFβ-1, IL-2, 2.5 μM, 7 days
Procedure: Human peripheral blood (AllCells) and phosphate buffered saline (PBS) were mixed in a ratio of 1:1 to prepare a mixture, followed by allowing the mixture to slowly rise so as not to be mixed into the upper layer of Histopaque (Sigma). After centrifugation at 350 g for 20 minutes, only the monocyte layer in the middle layer was collected and washed with HBSS (Hanks' Balanced Salt Solution, Gibco®). After washing with MACS buffer (Miltenyi Biotec) once more to obtain T-cells, positive selection (autoMACS seperator, Miltenyi Biotec) was performed with CD4 Microbeads (Miltenyi Biotec). The T-cells collected by the above method were prepared by resuspending the cells in RPMI-fetal bovine serum (FBS) 10%+2-ME (mercaptoethanol) medium at 5×10^5/ml. For T-cell activation, 10 μg/ml anti-CD3 (eBioscience™) was dispensed by 150 μl into a 48-well plate, reacted in a cell incubator (37° C., 5% CO2 incubator) for 3 hours, and washed with phosphate buffered saline to prepare the plate. 250 μl of resuspended T-cells was dispensed onto the prepared plate, and each well was treated with 2 μg/ml of anti-CD28 (eBioscience™), 5 ng/ml of TGFβ-1 (R&D systems), and 50 U/ml of IL-2 (Miltenyi Biotec). Each 5 μl of compounds at a concentration of 2.5 μM diluted in RPMI+2ME medium was used for treatment, followed by culturing the same in a cell incubator (37° C., 5% CO2 incubator) for 7 days. As a control, 5 μl of 0.05% dimethylsulfoxide (DMSO)/RPMI medium was used for treatment. After 7 days, in order to confirm effects of producing regulatory T cells, the cultured cells were recovered to determine the presence of Foxp3 protein.
The recovered cells were placed in a 5 ml FACS tube (BD Falcon) and washed with 1 ml of phosphate buffered saline. The cells were resuspended in 0.1 ml of FACS buffer (0.1% NaN3, 1% FBS) and treated with 1 μg of human immunoglobulin G (Human IgG, Sigma) to prevent non-specific binding of the antibody. After reacting at 4° C. for 15 minutes, the cells were washed with FACS buffer. Then, 1 ml of Fixation/Permeabilization solution (eBioscience™) was added to the FACS tube containing each sample, followed by reaction at 4° C. for 1 hour. Thereafter, the product was washed twice with a Permeabilization buffer (eBioscience™). Then, 0.25 μg of Foxp3 monoclonal antibody (eBioscience™) was used for treatment, followed by staining the sample for 4 to 30 minutes. The cells were washed twice with the permeabilization buffer, suspended in 0.3 ml of FACS buffer, and measured by flow cytometry.

[5] = test system: C57BL/6 mice with graft-versus-host disease; experiment: Acute graft-versus-host disease model (allogeneic bone marrow transplantation), severity index; assay type: in vivo, mouse; details: 20 mg/kg intraperitoneally daily 4 to 9 days after transplantation; 14th day after transplantation; total of 10 points; solvent control 6.20±1.20
Procedure: The spleen of Balb/c IFN-γ knockout mouse (8 to 12 weeks old, female, 18±3 g) was excised, pulverized by adding RPMI medium, and then passed through a 40 μm cell strainer (BD Falcon), thereby obtaining a single cell suspension. The single cell suspension was centrifuged (1200 rpm, 5 minutes), and after discarding the supernatant, 1 ml of ACK (ammonium chloride/potassium bicarbonate) lysis buffer (0.15 M NH4Cl, 1 mM KHCO3, 0.1 mM Na2EDTA) was added, followed by stirring for 1 minute and then washing the same with RPMI medium.
Then, CD90.2^+ T cells were obtained from the cell suspension using Auto MACS pro (Miltenyi Biotec) (positive selection). To obtain bone marrow cells to be transplanted together with the obtained CD90.2^+ T cells, both femurs and tibias of wild-type Balb/c mice (8-12 weeks old, female, 18±3 g) were aseptically acquired. […]
Normal C57BL/6 mice (9 to 11 weeks old, female, 19±3 g) were irradiated with 850 cGy of radiation divided at an interval of 3 hours by using a radiation irradiator. […] The graft-versus-host disease severity index was evaluated at an interval of 2 days by visual observation in a severity index system that was classified into a total of 10 points with 0 to 2 points for each item including reduction of body weight, hair condition, posture, activity and skin change.

[6] = test system: IL-6, IL-17A and IL-10 expression in lung tissue; experiment: mRNA expression of IL-6, IL-17A and IL-10 in lung tissue of GVHD mice (real-time PCR); assay type: in vivo, mouse; details: 20 mg/kg i.p., 15th day, compared to solvent control
Text: On the 15th day of the experiment, the lungs of the mice were excised to prepare an mRNA sample. In order to extract mRNA, the […] was ground with a homogenizer to obtain a homogeneous suspension. […] Then, cDNA was synthesized from the isolated RNA by reverse transcription, and the expression of inflammatory cytokines was confirmed through real-time polymerase chain reaction (PCR) using iQ SYBR-Green Supermix (Bio-rad) in the CFX96 (Bio-rad) detection system. Relative values of the enzyme expression levels were compared by the ΔΔct method using GAPDH as a control enzyme. Herein, one (1) fold was set using the normal mouse […] as a control.
The real-time polymerase chain reaction was implemented under the conditions of cycles at an annealing temperature of 58° C., and the following primer sequences were used.

## O=C(Cc1c[nH]c2ccc(Cl)cc12)Nc1ccc(Cl)c(F)n1 [Compound 26, 2-(5-chloro-1H-indol-3-yl)-N-(5-chloro-6-fluoropyridin-2-yl)acetamide]
[1]
  expression level of Foxp3 in the colon lesion: significantly increased
  expression level of IL-1β in colon lesions: significantly reduced
  expression level of IL-6 in colon lesions: significantly reduced
  expression level of IL-10 in the colon lesion: significantly increased
  expression level of IL-17A in colon lesions: significantly reduced
  expression level of TNF-α in colon lesions: significantly reduced
[2]; 2nd to 11th day, 10th day of the experiment
  inflammatory bowel disease severity index: statistically significant therapeutic effects
[2]; 15th day of the experiment
  colon weight:length ratio (intestinal inflammation): significantly suppressed
[3]
  Serum FITC-dextran: significantly reduced
[4]
  generation of Foxp3+ regulatory T cells: promoted
[5]
  graft-versus-host disease severity index: 2.80±0.80
[6]
  expression level of IL-6 in lung tissue: significantly reduced
  expression level of IL-10 in lung tissue: significantly increased
  expression level of IL-17A in lung tissue: significantly reduced

— patent US20230020507A1, “COMPOUND AND USE THEREOF IN TREATING AUTOIMMUNE DISEASES” (PARENCHYMA BIOTECH INC., priority 2019, published 2023)
